Test results: US20160244453A1, “TREATMENT OF VIRAL AND INFECTIOUS DISEASES USING AN INHIBITOR OF CBP/CATENIN” (PRISM PHARMA CO., LTD., priority 2013, published 2016)

Tests used:
Assay type in all cases: cell-based
LC3B = test: Autophagy induction in macrophages, LC3B immunoblotting
From the text: Microtubule-associated protein 1A/1B-light chain 3 (LC3) is a soluble protein that is distributed ubiquitously in mammalian tissues and cultured cells (reviewed in Methods Mol. Biol. 445, 77-88 (2008). During autophagy, autophagosomes engulf cytoplasmic components, including cytosolic proteins and organelles. Concomitantly, a cytosolic form of LC3 (LC3-I) is conjugated to phosphatidylethanolamine to form LC3-phosphatidylethanolamine conjugate (LC3-II), which is recruited to autophagosomal membranes. Autophagosomes fuse with lysosomes to form autolysosomes, and intra-autophagosomal components are degraded by lysosomal hydrolases. At the same time, LC3-II in autolysosomal lumen is degraded. Thus, lysosomal turnover of the autophagosomal marker LC3-II reflects starvation-induced autophagic activity, and detecting LC3 by immunoblotting or immunofluorescence is an indicator of autophagy and autophagy-related processes, including autophagic cell death.
(§1) For these studies, macrophages were exposed to rapamycin 100 nM (a known inducer of autophagic flux), proteins were extracted and subjected to immunoblotting.
During autophagy, LC3B (LC3B-I) forms LC3B-phosphatidylethanolamine conjugate (LC3B-II), which is recruited to autophagosomal membranes. When there is autophagic flux there is lipidation of LC3B-I that results in conversion of LC3B-II. Thus, during autophagic flux the relative quantity of LC3B-II is increased compared to LC3B-I.

[1] = system: Sequestome 1/p62 (SQSTM1); test: Autophagic flux in macrophages, SQSTM1/p62 immunoblotting; conditions: Compound A 1 and 2 μM, rapamycin 100 nM, immunoblot
Method: as §1
In addition, the inventors looked at another marker of autophagic flux (sequestosome 1, also called SQSTIM1 or p62). During active autophagy, SQSTIM1 is degraded (decreased).

HIV = HIV replication in macrophages, HIV p24 antigen released into culture supernatants; conditions: macrophages pretreated 24 hours; infection monitored 10 days; concentrations 100 pM to 2 μM
Method: For these experiments, peripheral blood mononuclear cells (PBMCs) were isolated from HIV seronegative donors and differentiated into macrophages for 7-10 days using methods previously described (J Biol Chem 286: 18890-18902 (2011); PLoS Pathogens 8(5):e1002689 pp 1-13 (2012); PLoS Pathogens 8(11):e1003017 (2012)). The macrophages were pretreated for 24 hours with Compound C, which is the β-catenin inhibitor (6S,9S,9aS)-N-benzyl-6-(4-hydroxybenzyl)-2,9-dimethyl-4,7-dioxo-8-(quinolin-8-ylmethyl)octahydro-1H-pyrazino[2,1-c][1,2,4]triazine-1-carboxamide. Macrophages were treated with Compound C at increasing concentrations and productive infection was monitored for 10 days by detection of HIV p24 antigen released into the culture supernatants.

CD4 Tscm = test: In vitro culture assay of sorted CD4 Tscm, phenotype by flow cytometry; conditions: 10 d incubation with rhIL-15; compared to control experiments
Method: (§2) PBMC were stained with monoclonal antibodies directed against CD4, CD3, CD45RA, CCR7, CD62L, CD122, CD95, according to standard protocols. After 20 minutes, CCR7+ CD45RA+ naïve CD4 T cells, CCR7+ CD45RA− central-memory CD4 T cells (CD4 Tcm), CCR7− CD45RA− CD4 T cells, CCR7− CD45RA+ terminally-differentiated CD4 T cells (CD4 Ttd) and CCR7+ CD45RA+ CD62L+ CD95+ CD122+ T memory stem cell CD4 T cells (CD4 Tscm) were live sorted in a specifically designated biosafety cabinet (Baker Hood), using a FACS Aria cell sorter (BD Biosciences) at 70 pounds per square inch. For phenotypic characterization, cells were additionally stained with CCR5 or CXCR4 antibodies, or Annexin V, and acquired on a LSRII flow cytometer (BD Biosciences). Data were analyzed using FlowJo software (Treestar).
(§3) Selected CD4 T cell subsets were isolated by cell sorting, labeled cells with 2 μM CFSE for 7 min at 37° C., and incubated with rhIL-15 (25 ng/ml; Peprotech) for 10 d in the presence or absence of Compound C, (6S,9S,9aS)-N-benzyl-6-(4-hydroxybenzyl)-2,9-dimethyl-4,7-dioxo-8-(quinolin-8-ylmethyl)octahydro-1H-pyrazino[2,1-c][1,2,4]triazine-1-carboxamide (Prism Biolabs). Afterwards, cells were harvested and phenotypically characterized by flow cytometry. […]

CD4 Tcm = test: In vitro culture assay of sorted CD4 Tcm, phenotype by flow cytometry; conditions: 10 d incubation with rhIL-15; compared to control experiments
Method: as §2, §3

Compound	induction of autophagy (LC3B; 1 and 2 μM)	levels of LC3B II and LC3B I relative to negative control (LC3B; Compound A 2 μM, rapamycin 100 nM, immunoblot)	amount of LC3B II and LC3B I relative to negative control (LC3B; Compound A 1 and 2 μM, rapamycin 100 nM, immunoblot)	SQSTM1 (p62) levels relative to negative control [1]	HIV replication (HIV p24 antigen) (HIV)	differentiation of Tscm into more mature CCR7− CD62L− CD4 T cell populations (CD4 Tscm)	differentiation of Tcm into more mature CCR7− CD62L− CD4 T cell populations (CD4 Tcm)
C[C@H]1[C@H]2N(C(=O)CN(C)N2C(=O)NCc2ccccc2)[C@@H](Cc2ccc(OP(=O)(O)O)cc2)C(=O)N1Cc1cccc2cccnc12 [Compound A, 4-(((6S,9S,9aS)-1-(benzylcarbamoyl)-2,9-dimethyl-4,7-dioxo-8-(quinolin-8-ylmethyl)octahydro-1H-pyrazino[2,1-c][1,2,4]triazin-6-yl)methyl)phenyl dihydrogen phosphate]	induces autophagy	greatly reduced	increased amount of LC3B II and decreased amount of LC3B I	reduced			
C[C@H]1[C@H]2N(C(=O)CN(C)N2C(=O)NCc2ccccc2)[C@@H](Cc2ccc(O)cc2)C(=O)N1Cc1cccc2cccnc12 [Compound C, (6S,9S,9aS)-N-benzyl-6-(4-hydroxybenzyl)-2,9-dimethyl-4,7-dioxo-8-(quinolin-8-ylmethyl)octahydro-1H-pyrazino[2,1-c][1,2,4]triazine-1-carboxamide]					inhibits HIV in a dose dependent manner	substantially facilitated differentiation	to a lesser extent
